PMC9358547 (2022)

Columns and labels:
[1] = test system: HTPu-var-1-G4 (human telomere variant-1, 23-mer) (DNA, G4) TAGGGTTAGGGTTAGGGTTAGGG; assay: UV melting at 295 nm; details: 30 mM sodium cacodylate pH 7.0, 0.5 mM EDTA, 4 μM DNA
[2] = test system: HTPu-var-1-G4 (human telomere variant-1, 23-mer) (DNA, G4) TAGGGTTAGGGTTAGGGTTAGGG; assay: electrophoretic mobility shift assay with complementary strand HTPy-var-1; details: 100 mM K+; 30 mM sodium cacodylate pH 7.0, 1 mM EDTA; DNA:peptide 1:120, 1:160; excess HTPy-var-1 added afterwards
[3] = test system: HTPu-var-1-G4 (human telomere variant-1, 23-mer) (DNA, G4) TAGGGTTAGGGTTAGGGTTAGGG; assay: circular dichroism titration; details: 30 mM sodium cacodylate pH 7.0, 0.5 mM EDTA, 6 μM DNA, apparent constant
[4] = test system: HTPu-var-1-G4 (human telomere variant-1, 23-mer) (DNA, G4) TAGGGTTAGGGTTAGGGTTAGGG; assay: tryptophan fluorescence quenching titration; details: 30 mM buffer pH 7.0, 0.5 mM EDTA, 25 °C, 4 μM peptide titrated with DNA

- ΔTm ([1]; 100 mM K+, DNA:peptide 1:40, non-monotonic (66.1 at 1:80)): -1.0 °C
- ΔTm ([1]; 100 mM Na+, DNA:peptide 1:230): -0.9 °C
- binding [2]: yes
- Kb ([3]; 100 mM K+): 290 ± 10 µM
- Kb ([3]; 100 mM Na+): 260 ± 30 µM
- Kb ([4]; 100 mM K+): 0.71 ± 0.42 µM
- Kb ([4]; 100 mM Na+): 0.46 ± 0.11 µM
Substance: H-VAQKW-OH
